ChEMBL document CHEMBL1128268, “Tryptophan-derived NK1 antagonists: conformationally constrained heterocyclic bioisosteres of the ester linkage” (J Med Chem, 1995)

Molecular target: Substance-P receptor (Homo sapiens, UniProt P25103)
Experiment: Binding affinity at human Tachykinin receptor 1 expressed in CHO cells by [125 I]Trp8-substance P displacement.
Assay type: cell-based

Chain of Substance-P receptor (P25103 whole entry): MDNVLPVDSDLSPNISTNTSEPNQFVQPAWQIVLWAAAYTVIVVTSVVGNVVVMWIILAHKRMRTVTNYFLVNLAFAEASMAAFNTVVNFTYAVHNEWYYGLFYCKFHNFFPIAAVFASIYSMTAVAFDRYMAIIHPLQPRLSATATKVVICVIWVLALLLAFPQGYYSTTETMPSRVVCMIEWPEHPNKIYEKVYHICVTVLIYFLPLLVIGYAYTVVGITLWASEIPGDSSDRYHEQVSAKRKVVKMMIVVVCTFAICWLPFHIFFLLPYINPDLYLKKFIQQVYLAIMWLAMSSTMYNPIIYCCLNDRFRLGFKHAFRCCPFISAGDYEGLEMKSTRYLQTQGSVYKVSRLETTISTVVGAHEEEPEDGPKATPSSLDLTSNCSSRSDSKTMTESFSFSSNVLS

`O=C1NC(Cc2c[nH]c3ccccc23)CN1Cc1cc(C(F)(F)F)cc(C(F)(F)F)c1` (centres undefined) was tested. Which IC50 did it give?
Its IC50 is 267 nM.

For `C=CCC1(Cc2c[nH]c3ccccc23)OC(=O)N(Cc2cc(C(F)(F)F)cc(C(F)(F)F)c2)C1=O` (centres undefined), which IC50 is on record?
Its IC50 is 31 nM.

For `CC1(Cc2c[nH]c3ccccc23)OC(=O)N(Cc2cc(C(F)(F)F)cc(C(F)(F)F)c2)C1=O` (centres undefined), which IC50 is on record?
Its IC50 is 11 nM.

For `CN1C(=O)N(Cc2cc(C(F)(F)F)cc(C(F)(F)F)c2)C(=O)C1Cc1c[nH]c2ccccc12` (centres undefined), which IC50 is on record?
Its IC50 is 153 nM.

Which IC50 does the source give for `Cc1cc(C)cc(CN2C(=O)OC(Cc3c[nH]c4ccccc34)C2=O)c1` (centres undefined) here?
The IC50 was 683 nM.

`O=C1CNC(Cc2c[nH]c3ccccc23)CN1Cc1cc(C(F)(F)F)cc(C(F)(F)F)c1` (centres undefined) was tested. Which IC50 did it give?
The IC50 was 243 nM.

With `FC(F)(F)c1cc(CN2CCNC(Cc3c[nH]c4ccccc34)C2)cc(C(F)(F)F)c1` (centres undefined) as the molecule, how does the IC50 read?
Its IC50 is 567 nM.

Which IC50 does the source give for `O=C1OC(Cc2c[nH]c3ccccc23)C(=O)N1Cc1cc(Cl)cc(Cl)c1` (centres undefined) here?
The IC50 was 273 nM.

`O=C1C(Cc2c[nH]c3ccccc23)N(C(=O)Nc2ccccc2)C(=O)N1Cc1cc(C(F)(F)F)cc(C(F)(F)F)c1` (centres undefined) was tested. Which IC50 did it give?
The IC50 was 220 nM.

For `COc1cc(CN2C(=O)OC(Cc3c[nH]c4ccccc34)C2=O)cc(OC)c1` (centres undefined), which IC50 is on record?
Its IC50 is 7370 nM.

With `O=C1OC(Cc2c[nH]c3ccccc23)C(=O)N1Cc1cccc(C(F)(F)F)c1` (centres undefined) as the molecule, how does the IC50 read?
The IC50 was 2670 nM.

Which IC50 does the source give for `O=C1NC(Cc2c[nH]c3ccccc23)CN(Cc2cc(C(F)(F)F)cc(C(F)(F)F)c2)C1=O` (centres undefined) here?
Its IC50 is 400 nM.

Which IC50 does the source give for `O=C1NC(Cc2c[nH]c3ccccc23)C(=O)N1Cc1cc(C(F)(F)F)cc(C(F)(F)F)c1` (centres undefined) here?
The IC50 was 317 nM.

With `O=C1CC(Cc2c[nH]c3ccccc23)C(=O)N1Cc1cc(C(F)(F)F)cc(C(F)(F)F)c1` (centres undefined) as the molecule, how does the IC50 read?
Its IC50 is 203 nM.

With `CNC(=O)N1C(=O)N(Cc2cc(C(F)(F)F)cc(C(F)(F)F)c2)C(=O)C1Cc1c[nH]c2ccccc12` (centres undefined) as the molecule, how does the IC50 read?
The IC50 was 63 nM.

With `O=C1C(Cc2c[nH]c3ccccc23)N(Cc2ccccc2)C(=O)N1Cc1cc(C(F)(F)F)cc(C(F)(F)F)c1` (centres undefined) as the molecule, how does the IC50 read?
The IC50 was 310 nM.

For `O=C1OC(Cc2c[nH]c3ccccc23)C(=O)N1Cc1cc(F)cc(F)c1` (centres undefined), which IC50 is on record?
Its IC50 is 4280 nM.

How did the IC50 turn out when `O=C1OC(Cc2c[nH]c3ccccc23)C(=O)N1Cc1cc(C(F)(F)F)cc(C(F)(F)F)c1` (racemic) was run?
The IC50 was 22 nM.

How did the IC50 turn out when `O=C1OC(Cc2c[nH]c3ccccc23)C(=O)N1Cc1cc(C(F)(F)F)cc(C(F)(F)F)c1` (single isomer, unassigned; (-)) was run?
The IC50 was 26 nM.
